# Test results as given in publication PMC4881748 (Journal of the American Chemical Society, 2016).
# How the values were obtained:
# BoNT/A LC = BoNT/A LC (Clostridium botulinum, UniProt P0DPI0); type: biochemical, C. botulinum
# BoNT/A = settings: cited from earlier work
# [1] = tested on: BoNT/A SNAP-25 cleavage in hiPSC-derived neurons; type: cell-based, human
# [2] = tested on: BoNT/A SNAP-25 cleavage in hiPSC-derived neurons; type: cell-based, human; remark: listed apart in the source
# BoNT/A LC, sequence (P0DPI0 2-448 limits assumed): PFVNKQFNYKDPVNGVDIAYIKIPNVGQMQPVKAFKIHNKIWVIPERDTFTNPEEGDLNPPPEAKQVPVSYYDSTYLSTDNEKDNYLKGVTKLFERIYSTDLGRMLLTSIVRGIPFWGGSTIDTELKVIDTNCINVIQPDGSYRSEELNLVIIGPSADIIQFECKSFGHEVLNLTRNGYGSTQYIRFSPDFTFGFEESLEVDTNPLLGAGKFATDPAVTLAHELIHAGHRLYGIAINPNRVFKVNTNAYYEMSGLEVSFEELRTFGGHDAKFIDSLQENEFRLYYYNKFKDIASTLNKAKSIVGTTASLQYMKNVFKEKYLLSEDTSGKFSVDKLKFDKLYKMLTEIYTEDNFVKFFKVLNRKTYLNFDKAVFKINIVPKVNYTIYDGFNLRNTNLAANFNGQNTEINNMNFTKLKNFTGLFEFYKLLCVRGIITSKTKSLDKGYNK
Compound,Inhibition in the LC enzyme assay (BoNT/A LC),Inhibition of SNAP-25 cleavage with delayed inhibitor addition [1],"EC50, SNAP-25 protection in cellular assay [2]",further results
O=C(O)CCC(=O)NO [4-(hydroxyamino)-4-oxobutanoic acid],did not demonstrate any inhibition,,,
"O=C1CCC(=O)N1O [N-hydroxysuccinimide (NHS), N-hydroxysuccinimide]",did not demonstrate any inhibition,,,
CO/C1=C\C(C)=C\[C@@H](C)[C@@H](O)[C@@H](C)C/C(C)=C/C=C/[C@H](OC)[C@@H]([C@@H](C)[C@@H](O)[C@H](C)[C@@]2(O)C[C@@H](O)[C@H](C)[C@@H](C(C)C)O2)OC1=O [bafilomycin A1],,initially effective,,Activity when added 0.5 h after toxin exposure (BoNT/A): reduced activity; Activity when added simultaneously or immediately after BoNT/A (BoNT/A): presented activity
CC(=O)O[C@@H]1C[C@H](O)[C@@]23CO[C@@H](O)[C@]1(C)[C@@H]2C[C@@H](O)[C@]1(C)[C@@H]3C(=O)[C@H](OC(C)=O)[C@@]2(C)[C@H](c3ccoc3)C[C@H]3O[C@]321 [toosendanin],,initially effective,,
N-acetyl-N-(benzyloxy)acetamide [Compound 10],,,Inactive,
O-benzyl N-hydroxysuccinimide [Compound 7],,,Inactive,
